The values that follow are results of earlier work, collected in patent publication US20230071934A1, “NOVEL USES” (Intra-Cellular Therapies, Inc., priority 2019, published 2023).

The target of the data set is T1, sEH (Homo sapiens, UniProt P34913).
T1 sequence (P34913 1-555): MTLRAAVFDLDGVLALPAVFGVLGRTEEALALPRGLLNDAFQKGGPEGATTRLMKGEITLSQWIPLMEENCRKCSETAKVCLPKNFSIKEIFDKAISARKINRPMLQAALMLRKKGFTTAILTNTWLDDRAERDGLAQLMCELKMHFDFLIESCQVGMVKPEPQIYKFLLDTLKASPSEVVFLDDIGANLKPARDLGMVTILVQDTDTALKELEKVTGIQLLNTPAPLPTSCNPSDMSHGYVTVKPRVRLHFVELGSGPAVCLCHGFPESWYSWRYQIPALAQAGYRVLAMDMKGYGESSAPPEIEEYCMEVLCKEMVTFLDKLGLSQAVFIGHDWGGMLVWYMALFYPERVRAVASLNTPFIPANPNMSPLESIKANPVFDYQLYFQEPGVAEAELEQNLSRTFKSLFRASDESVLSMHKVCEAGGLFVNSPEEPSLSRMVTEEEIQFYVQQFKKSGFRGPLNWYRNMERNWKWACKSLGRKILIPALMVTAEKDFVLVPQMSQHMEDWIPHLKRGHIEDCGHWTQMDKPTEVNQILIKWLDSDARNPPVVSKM

SMILES strings stand for the structures.

In the case of `CCCCCCCCCCCCNC(=O)NC12CC3CC(CC(C3)C1)C2` [ADU, N-Adamantyl-N′-dodecyl urea], the “activity as an inhibitor of sEH” value is on record as “particularly high activity”.
